Several values for one entry are separate records, joined by “and”; a condition that tells them apart may be missing. Identical values can stand only once. Toxic doses and inconclusive results are not listed.
Tested on: CD2F1 mice, L1210 leukemia ip, survival T/C
Experiment: NCI In Vivo Anticancer Drug Screen. Data for tumor model L1210 Leukemia (intraperitoneal) in CD2F1 (CDF1) mice
Details: higher = longer survival
Procedure, shortened: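 Transplantable tumor in mice; compound-treated vs vehicle-treated groups. Read-out = treated/control ratio of the measured endpoint.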

[1] = endpoint: mean survival time, dose: 100.0 mg/kg/injection, schedule: Q04DX003 (ip), vehicle: saline with Tween-80
[2] = endpoint: mean survival time, dose: 200.0 mg/kg/injection, schedule: Q04DX003 (ip), vehicle: saline with Tween-80
[3] = endpoint: mean survival time, dose: 100.0 mg/kg/injection, schedule: Q01DX001 (ip), vehicle: saline with Tween-80
[4] = endpoint: mean survival time, dose: 200.0 mg/kg/injection, schedule: Q01DX001 (ip), vehicle: saline with Tween-80
[5] = endpoint: mean survival time, dose: 100.0 mg/kg/injection, schedule: Q01DX009 (ip), vehicle: saline with Tween-80
[6] = endpoint: mean survival time, dose: 400.0 mg/kg/injection, schedule: Q01DX001 (ip), vehicle: saline with Tween-80

O=S(c1cc(Cl)ccc1O)c1cc(Cl)ccc1O
T/C [1]: 98 % of control
T/C [2]: 89 % of control

CCCCC(C)C1(CCC)NC(C)(C)CC(C)O1 (centres undefined)
T/C [3]: 97 % of control
T/C [4]: 101 % of control

[Cl][Pt+2][Cl].[NH-]CC1(C[NH-])CCC1
T/C (endpoint: mean survival time, dose: 3.12 mg/kg/injection, schedule: Q04DX003 (ip), vehicle: saline): 111 % of control
T/C (endpoint: mean survival time, dose: 12.5 mg/kg/injection, schedule: Q04DX003 (ip), vehicle: saline): 229 % of control
T/C (endpoint: mean survival time, dose: 25.0 mg/kg/injection, schedule: Q04DX003 (ip), vehicle: saline): 272 % of control
T/C (endpoint: mean survival time, dose: 50.0 mg/kg/injection, schedule: Q04DX003 (ip), vehicle: saline): 174 % of control and 231 % of control
T/C (endpoint: mean survival time, dose: 100.0 mg/kg/injection, schedule: Q04DX003 (ip), vehicle: saline): 164 % of control and 335 % of control
T/C (endpoint: mean survival time, dose: 200.0 mg/kg/injection, schedule: Q04DX003 (ip), vehicle: saline): 90 % of control
T/C (endpoint: median survival time, dose: 0.1 mg/kg/injection, schedule: Q01DX009 (ip), vehicle: Klucel (hydroxypropylcellulose) (HPC)): 111 % of control
T/C (endpoint: median survival time, dose: 0.2 mg/kg/injection, schedule: Q01DX009 (ip), vehicle: Klucel (hydroxypropylcellulose) (HPC)): 111 % of control
T/C (endpoint: median survival time, dose: 1.5 mg/kg/injection, schedule: Q01DX009 (ip), vehicle: carboxymethylcellulose (CMC)): 239 % of control
T/C (endpoint: median survival time, dose: 3.0 mg/kg/injection, schedule: Q01DX009 (ip), vehicle: carboxymethylcellulose (CMC)): 281 % of control
T/C (endpoint: median survival time, dose: 3.12 mg/kg/injection, schedule: Q01DX009 (ip), vehicle: Klucel (hydroxypropylcellulose) (HPC)): 222 % of control and 320 % of control
T/C (endpoint: median survival time, dose: 3.13 mg/kg/injection, schedule: Q01DX009 (ip), vehicle: Klucel (hydroxypropylcellulose) (HPC)): 169 % of control and 206 % of control
T/C (endpoint: median survival time, dose: 6.0 mg/kg/injection, schedule: Q01DX001 (ip), vehicle: carboxymethylcellulose (CMC)): 171 % of control
T/C (endpoint: median survival time, dose: 8.0 mg/kg/injection, schedule: Q01DX001 (ip), vehicle: other): 186 % of control
T/C (endpoint: median survival time, dose: 9.0 mg/kg/injection, schedule: Q01DX001 (ip), vehicle: carboxymethylcellulose (CMC)): 176 % of control
T/C (endpoint: median survival time, dose: 9.0 mg/kg/injection, schedule: Q01DX009 (ip), vehicle: carboxymethylcellulose (CMC)): 114 % of control
T/C (endpoint: median survival time, dose: 12.0 mg/kg/injection, schedule: Q01DX001 (ip), vehicle: carboxymethylcellulose (CMC)): 203 % of control
T/C (endpoint: median survival time, dose: 12.0 mg/kg/injection, schedule: Q01DX001 (ip), vehicle: other): 212 % of control
T/C (endpoint: median survival time, dose: 15.0 mg/kg/injection, schedule: Q01DX001 (ip), vehicle: carboxymethylcellulose (CMC)): 203 % of control
T/C (endpoint: median survival time, dose: 16.0 mg/kg/injection, schedule: Q01DX001 (ip), vehicle: other): 242 % of control
T/C (endpoint: median survival time, dose: 20.0 mg/kg/injection, schedule: Q01DX001 (ip), vehicle: other): 103 % of control

C[NH-].C[NH-].C[NH-].C[NH-].O=C(O)c1cc(C(=O)O)c(C(=O)O)cc1C(=O)O.[Pt+2].[Pt+2]
T/C (endpoint: mean survival time, dose: 3.12 mg/kg/injection, schedule: Q04DX003 (ip), vehicle: distilled water + Tween-80): 100 % of control
T/C (endpoint: mean survival time, dose: 6.25 mg/kg/injection, schedule: Q04DX003 (ip), vehicle: distilled water + Tween-80): 102 % of control
T/C (endpoint: mean survival time, dose: 12.5 mg/kg/injection, schedule: Q04DX003 (ip), vehicle: distilled water + Tween-80): 103 % of control
T/C (endpoint: mean survival time, dose: 25.0 mg/kg/injection, schedule: Q04DX003 (ip), vehicle: distilled water + Tween-80): 105 % of control
T/C (endpoint: mean survival time, dose: 50.0 mg/kg/injection, schedule: Q04DX003 (ip), vehicle: distilled water + Tween-80): 102 % of control
T/C (endpoint: mean survival time, dose: 100.0 mg/kg/injection, schedule: Q04DX003 (ip), vehicle: distilled water + Tween-80): 103 % of control
T/C (endpoint: mean survival time, dose: 200.0 mg/kg/injection, schedule: Q04DX003 (ip), vehicle: distilled water + Tween-80): 107 % of control

Cc1csc(NC(=O)c2ccc(C(=O)Nc3nc(C)cs3)cc2)n1
T/C (endpoint: mean survival time, dose: 100.0 mg/kg/injection, schedule: Q01DX001 (ip), vehicle: saline): 95 % of control
T/C (endpoint: mean survival time, dose: 200.0 mg/kg/injection, schedule: Q01DX001 (ip), vehicle: saline): 95 % of control
T/C (endpoint: mean survival time, dose: 400.0 mg/kg/injection, schedule: Q01DX001 (ip), vehicle: saline): 92 % of control

CCN(CC)CCN1CC2CC=CCC2C1 (centres undefined)
T/C [5]: 96 % of control

COC(=C\c1ccccc1)/C(=N/Nc1ccc([N+](=O)[O-])cc1[N+](=O)[O-])c1ccccc1
T/C [3]: 101 % of control
T/C [4]: 109 % of control
T/C [6]: 109 % of control

CCOC(OCC)c1nc(N)[nH]c(=O)c1CCCCc1ccccc1
T/C [1]: 87 % of control
T/C [2]: 87 % of control
T/C (endpoint: mean survival time, dose: 400.0 mg/kg/injection, schedule: Q04DX003 (ip), vehicle: saline with Tween-80): 95 % of control

Cc1cn(C2CC(OP(=O)(O)OCC3OC(n4cc(C)c(=O)[nH]c4=O)CC3OP(=O)(O)OCC3OC(n4cc(C)c(=O)[nH]c4=O)CC3OP(=O)(O)OCC3OC(n4cc(C)c(=O)[nH]c4=O)CC3OP(=O)(O)OCC3OC(n4ccc(N)nc4=O)C(O)C3O)C(CO)O2)c(=O)[nH]c1=O (centres undefined)
T/C (endpoint: median survival time, dose: 25.0 mg/kg/injection, schedule: Q01DX005 (ip), vehicle: saline): 111 % of control
T/C (endpoint: median survival time, dose: 50.0 mg/kg/injection, schedule: Q01DX005 (ip), vehicle: saline): 114 % of control
T/C (endpoint: median survival time, dose: 100.0 mg/kg/injection, schedule: Q01DX005 (ip), vehicle: saline): 124 % of control

CC(=O)N(C)C
T/C (endpoint: mean survival time, dose: 62.0 mg/kg/injection, schedule: Q01DX Z (ip), vehicle: saline): 92 % of control
T/C (endpoint: mean survival time, dose: 112.0 mg/kg/injection, schedule: Q01DX009 (ip), vehicle: saline): 100 % of control
T/C (endpoint: mean survival time, dose: 122.5 mg/kg/injection, schedule: Q01DX009 (ip), vehicle: saline): 91 % of control
T/C (endpoint: mean survival time, dose: 125.0 mg/kg/injection, schedule: Q01DX Z (ip), vehicle: saline): 96 % of control
T/C (endpoint: mean survival time, dose: 225.0 mg/kg/injection, schedule: Q01DX009 (ip), vehicle: saline): 95 % of control and 97 % of control
T/C (endpoint: mean survival time, dose: 250.0 mg/kg/injection, schedule: Q01DX Z (ip), vehicle: saline): 92 % of control
T/C (endpoint: mean survival time, dose: 450.0 mg/kg/injection, schedule: Q01DX009 (ip), vehicle: saline): 101 % of control and 103 % of control
T/C (endpoint: mean survival time, dose: 500.0 mg/kg/injection, schedule: Q01DX Z (ip), vehicle: saline): 102 % of control
T/C (endpoint: mean survival time, dose: 900.0 mg/kg/injection, schedule: Q01DX009 (ip), vehicle: saline): 89 % of control and 90 % of control
T/C (endpoint: mean survival time, dose: 1800.0 mg/kg/injection, schedule: Q01DX009 (ip), vehicle: saline): 117 % of control and 112 % of control

CC(=O)Oc1ccc(OC(C)=O)c2c1C(=O)C=CC2=O
T/C (endpoint: mean survival time, dose: 0.78 mg/kg/injection, schedule: Q04DX002 (ip), vehicle: alcohol): 92 % of control
T/C (endpoint: mean survival time, dose: 3.12 mg/kg/injection, schedule: Q04DX002 (ip), vehicle: alcohol): 86 % of control

COC(=O)C1OC(OC(C)=O)C(OC(C)=O)C(OC(C)=O)C1OC(C)=O (centres undefined)
T/C (endpoint: mean survival time, dose: 75.0 mg/kg/injection, schedule: Q04DX003 (ip), vehicle: saline with Tween-80): 98 % of control
T/C (endpoint: mean survival time, dose: 150.0 mg/kg/injection, schedule: Q04DX003 (ip), vehicle: saline with Tween-80): 98 % of control
T/C (endpoint: mean survival time, dose: 300.0 mg/kg/injection, schedule: Q04DX003 (ip), vehicle: saline with Tween-80): 92 % of control

OC12Cc3ccccc3C1=NN(c1ccccc1)C2c1ccccc1 (centres undefined)
T/C [5]: 91 % of control
T/C (endpoint: mean survival time, dose: 400.0 mg/kg/injection, schedule: Q01DX009 (ip), vehicle: saline with Tween-80): 86 % of control

O=[N+]([O-])c1cccc(Cc2nc3ccccc3nc2-c2ccccc2)c1
T/C [3]: 94 % of control
T/C [6]: 91 % of control

CSc1nc(NC2OCC(O)C(O)C2O)c(I)c(=O)n1C (centres undefined)
T/C (endpoint: median survival time, dose: 12.5 mg/kg/injection, schedule: Q01DX005 (ip), vehicle: saline with Tween-80): 103 % of control
T/C (endpoint: median survival time, dose: 25.0 mg/kg/injection, schedule: Q01DX005 (ip), vehicle: saline with Tween-80): 101 % of control
T/C (endpoint: median survival time, dose: 50.0 mg/kg/injection, schedule: Q01DX005 (ip), vehicle: saline with Tween-80): 101 % of control
T/C (endpoint: median survival time, dose: 100.0 mg/kg/injection, schedule: Q01DX005 (ip), vehicle: saline with Tween-80): 100 % of control
T/C (endpoint: median survival time, dose: 200.0 mg/kg/injection, schedule: Q01DX005 (ip), vehicle: saline with Tween-80): 100 % of control

Reference: PubChem BioAssay AID256 (DTP/NCI, 2004)
